# Laboratory results reported in patent publication US10668043B2, “Potentiated antimicrobial agents” (priority 2014, dated 2020).
# Experiments:
# Staphylococcus [1] = experiment: etest on agar containing the booster; format: cell-based; parameters: MIC (e-test): unit not given beside the values
# Excerpt: (§1) The corresponding tests are made based on the usual MIC test: the etest® (Biomerieux) strip is deposited onto the surface of a seeded agar medium in which the booster has been incorporated. This test enables solvent effect risks, that is a possible interaction with the solvent used in vitro, to be minimised.
# (§2) The control corresponds to the test made without cineol. A control is made in each solvent tested: distilled water, Tween/water and DMSO. • ED control=antibiotic alone in distilled water • DMSO control=antibiotic alone in DMSO • TE control=antibiotic alone in Tween® 80
# E. coli [2] = experiment: etest on agar containing the booster; format: cell-based; parameters: MIC (e-test): unit not given beside the values
# Excerpt: as §1, §2
# MSSA 8238 = conditions: Balb/c, mouse, in vivo
# Procedure: To Balb/c mice, is injected (Sc.) the antimicrobial product or the antimicrobial+booster mixture.
# At different post-injection times, the mice are euthanised, and blood sampled, heparined and centrifuged to extract plasma thereof
# Antibacterial effects are measured after 24 h incubation. The successive dilutions enable the antimicrobial effect to be determined and compared with the MIC. The efficient concentration/MIC ratio is thus determined.
# Staphylococcus [3] = experiment: Double dilution test; format: cell-based; conditions: strain 8148
# Excerpt: (§3) The double dilution test is a MIC measurement test made on successive dilutions of the 2 products of the composition. […] The summary table expresses for each strain and for each dilution of the booster the measured antibiotic MIC.
# (§4) The code enabling the results to be interpreted is the following one: no sign “^+” if the MIC is equivalent with and without booster, a sign “^+” if the value is lower with booster.
# E. coli [4] = experiment: Double dilution test; format: cell-based
# Excerpt: as §3, §4
structure (smiles),measurement,setting,value
"CC1(C)S[C@@H]2[C@H](NC(=O)[C@H](N)c3ccc(O)cc3)C(=O)N2[C@H]1C(=O)O [Amox, amoxicillin]",MIC (e-test),"Staphylococcus [1]; strain 8143, Cineol 4 mg/L, DMSO",1.5^+
same,MIC (e-test),"Staphylococcus [1]; strain 8143, Cineol 16 mg/L, DMSO",1.5^+
same,MIC (e-test),"Staphylococcus [1]; strain 8143, ED control, no cineol",2^+
same,MIC (e-test),"Staphylococcus [1]; strain 8146, Cineol 4 mg/L, DMSO",0.38^+
same,MIC (e-test),"Staphylococcus [1]; strain 8146, Cineol 16 mg/L, DMSO",0.19^+
same,MIC (e-test),"Staphylococcus [1]; strain 8146, ED control, no cineol",0.5^+
same,MIC (e-test),"Staphylococcus [1]; strain 8149, Cineol 4 mg/L, DMSO",0.5^+
same,MIC (e-test),"Staphylococcus [1]; strain 8149, Cineol 16 mg/L, DMSO",0.38^+
same,MIC (e-test),"Staphylococcus [1]; strain 8149, ED control, no cineol",1^+
same,MIC (e-test),"Staphylococcus [1]; strain 8240, Cineol 4 mg/L, DMSO",12^+
same,MIC (e-test),"Staphylococcus [1]; strain 8240, Cineol 16 mg/L, DMSO",16^+
same,MIC (e-test),"Staphylococcus [1]; strain 8240, ED control, no cineol",24^+
same,MIC (e-test),"Staphylococcus [1]; strain 8241, Cineol 4 mg/L, DMSO",8^+
same,MIC (e-test),"Staphylococcus [1]; strain 8241, Cineol 16 mg/L, DMSO",12^+
same,MIC (e-test),"Staphylococcus [1]; strain 8241, ED control, no cineol",32^+
same,MIC (e-test),"Staphylococcus [1]; strain 10168, Cineol 4 mg/L, DMSO",1^+
same,MIC (e-test),"Staphylococcus [1]; strain 10168, Cineol 16 mg/L, DMSO",1^+
same,MIC (e-test),"Staphylococcus [1]; strain 10168, ED control, no cineol",2^+
same,MIC (e-test),"E. coli [2]; strain 8141, Cineol 4 mg/L, DMSO",6^+
same,MIC (e-test),"E. coli [2]; strain 8141, Cineol 16 mg/L, DMSO",0.1^+
same,MIC (e-test),"E. coli [2]; strain 8141, ED control, no cineol",8^+
same,MIC (e-test),"E. coli [2]; strain 8150, Cineol 4 mg/L, DMSO",6^+
same,MIC (e-test),"E. coli [2]; strain 8150, Cineol 16 mg/L, DMSO",0.1^+
same,MIC (e-test),"E. coli [2]; strain 8150, ED control, no cineol",8^+
same,MIC (e-test),"E. coli [2]; strain 8156, Cineol 4 mg/L, DMSO",8^+
same,MIC (e-test),"E. coli [2]; strain 8156, Cineol 16 mg/L, DMSO",8^+
same,MIC (e-test),"E. coli [2]; strain 8156, ED control, no cineol",12^+
same,MIC (e-test),"E. coli [2]; strain ATCC25922, Cineol 4 mg/L, DMSO",12^+
same,MIC (e-test),"E. coli [2]; strain ATCC25922, Cineol 16 mg/L, DMSO",12^+
same,MIC (e-test),"E. coli [2]; strain ATCC25922, ED control, no cineol",16^+
same,Time spent beyond the MIC,MSSA 8238,<5 h
same,amoxicillin MIC,"Staphylococcus [3]; Amox, cineol 0",8 µg/mL
same,amoxicillin MIC,Staphylococcus [3]; cineol 10 mg/L,0.5^+
same,amoxicillin MIC,Staphylococcus [3]; cineol 20 mg/L,8 µg/mL
same,amoxicillin MIC,Staphylococcus [3]; cineol 37.5 mg/L,8 µg/mL
same,amoxicillin MIC,Staphylococcus [3]; cineol 75 mg/L,8 µg/mL
same,amoxicillin MIC,Staphylococcus [3]; cineol 150 mg/L,8 µg/mL
same,amoxicillin MIC,Staphylococcus [3]; cineol 300 mg/L,8 µg/mL
same,amoxicillin MIC,Staphylococcus [3]; cineol 600 mg/L,8 µg/mL
same,amoxicillin MIC,"Staphylococcus [3]; cineol 2,500 mg/L",8 µg/mL
same,amoxicillin MIC,"Staphylococcus [3]; cineol 5,000 mg/L",8 µg/mL
same,amoxicillin MIC,"Staphylococcus [3]; cineol 10,000 mg/L",4 µg/mL
same,amoxicillin MIC,"Staphylococcus [3]; cineol 25,000 mg/L",16^
same,amoxicillin MIC,"Staphylococcus [3]; cineol 50,000 mg/L",0.25^+
same,amoxicillin MIC,Staphylococcus [3]; cineol […],8 µg/mL
same,amoxicillin MIC,"E. coli [4]; strain 8137, Amox, cineol 0",8 µg/mL
same,amoxicillin MIC,"E. coli [4]; strain 8137, cineol 10 mg/L",0.5^+
same,amoxicillin MIC,"E. coli [4]; strain 8137, cineol 20 mg/L",8 µg/mL
same,amoxicillin MIC,"E. coli [4]; strain 8137, cineol 37.5 mg/L",8 µg/mL
same,amoxicillin MIC,"E. coli [4]; strain 8137, cineol 75 mg/L",8 µg/mL
same,amoxicillin MIC,"E. coli [4]; strain 8137, cineol 150 mg/L",8 µg/mL
same,amoxicillin MIC,"E. coli [4]; strain 8137, cineol 300 mg/L",8 µg/mL
same,amoxicillin MIC,"E. coli [4]; strain 8137, cineol 600 mg/L",8 µg/mL
same,amoxicillin MIC,"E. coli [4]; strain 8137, cineol 2,500 mg/L",8 µg/mL
same,amoxicillin MIC,"E. coli [4]; strain 8137, cineol 5,000 mg/L",8 µg/mL
same,amoxicillin MIC,"E. coli [4]; strain 8137, cineol 25,000 mg/L",4^+
same,amoxicillin MIC,"E. coli [4]; strain 8137, cineol 50,000 mg/L",0.25^+
same,amoxicillin MIC,"E. coli [4]; strain 8137, cineol […]",8 µg/mL
same,amoxicillin MIC,"E. coli [4]; strain 8151, Amox, cineol 0",8 µg/mL
same,amoxicillin MIC,"E. coli [4]; strain 8151, cineol 10 mg/L",0.5^+
same,amoxicillin MIC,"E. coli [4]; strain 8151, cineol 20 mg/L",8 µg/mL
same,amoxicillin MIC,"E. coli [4]; strain 8151, cineol 37.5 mg/L",8 µg/mL
same,amoxicillin MIC,"E. coli [4]; strain 8151, cineol 75 mg/L",8 µg/mL
same,amoxicillin MIC,"E. coli [4]; strain 8151, cineol 150 mg/L",8 µg/mL
same,amoxicillin MIC,"E. coli [4]; strain 8151, cineol 300 mg/L",8 µg/mL
same,amoxicillin MIC,"E. coli [4]; strain 8151, cineol 600 mg/L",8 µg/mL
same,amoxicillin MIC,"E. coli [4]; strain 8151, cineol 2,500 mg/L",8 µg/mL
